# Legend:
# B16F10 murine melanoma = experiment: B16F10 murine melanoma, combination with TMZ; type: in vivo, C57BL/6 mice; details: A-861695 25, 12.5 or 3.1 mg/kg/day p.o. b.i.d. days 1-14 + TMZ 62.5 mg/kg/day p.o. q.d. x5
# Method: This study was done on mice with B 16F 10 murine melanoma. Mice were divided into six treatment groups with 8-10 mice per group. See figure two for treatment groups. B16F10 cells were injected s.c. into C57BL/6 mice on day 0. Dosing was initiated on day one. A-861695 was administered p.o., b.i.d. on days 1-14. On days 3-7 temozolomide (TMZ) was administered p.o., q.d. (for the groups receiving both TMZ and A-861695, TMZ was given two hours after the A-861695 was administered).
# [1] = test system: 9 L orthotopic gliosarcoma; experiment: 9L orthotopic gliosarcoma, combination with TMZ; type: in vivo, Fisher 344 rats
# Method: Tumor growth was monitored longitudinally using contrast-enhanced magnetic resonance imaging (MRI). Animal survival was evaluated based on humane euthanasia of rats presenting signs of irreversible illness.
# [2] = test system: MX-1 breast carcinoma xenograft; experiment: MX-1 breast carcinoma xenograft, combination with carboplatin; type: in vivo, scid mice
# From the text: The MX-1 breast carcinoma xenograft model in scid mice was used to test the ability of A-861695 to potentiate the efficacy of platinum-based agents. This cell line was derived from a person with a poorly differentiated mammary carcinoma. MX-1 is sensitive to cytotoxic agents. Carboplatin, a second-generation platinum containing anticancer drug, is currently the standard of care for treating lung, ovarian, and head and neck cancers. MX-1 tumors are sensitive to carboplatin. […] Mice were randomized into treatment groups of 8-10 mice per group. […] A-861695 was administered at 25 mg/kg/day s.c., via 14-day osmotic minipumps (OMPs) starting on day 17. Carboplatin was given i.p., on day 20, 24 and 27.
# [3] = test system: MX-1 breast carcinoma xenograft; experiment: MX-1 breast carcinoma xenograft, combination with cisplatin; type: in vivo, nude mice
# Method: In this study the efficacy of A-861695 in combination with cisplatin was evaluated in the MX-1 breast carcinoma xenograft model in nude mice. Tumors were size-matched to 100 mm^3 on day 16 and PARP inhibitor therapy (p.o., b.i.d. ×8) was initiated the same day. A single dose of cisplatin at 6.0 mg/kg/day was administered i.p. day 18. Data, shown in FIG. 5, are mean±S.E.M. of 9 mice per treatment group.
# [4] = test system: intra-cerebellar medulloblastoma xenographs; HSB T-cell ALL; JM1 pre-B ALL; P115 primary AML cells; experiment: TMZ and ABT-888 combinations in medulloblastoma xenografts and leukemia cells (FIGS. 7-11); type: in vivo, mice; details: differing amounts of TMZ and ABT-888 combinations
# DoHH-2 cells = experiment: B-cell lymphoma (DoHH-2 cell) flank xenograft; details: for Mean Tumor Volume Day 27 mm^3 ± SE: ABT-888 25 mg/kg/day PO BID 7 days, Temozolomide 50 mg/kg/day PO QD 5 days, tumor size at start 503 mm^3; for % T/C Day 28 (dosing 11 days): treatment group/corresponding vehicle group x 100
# Method: Animals were size matched on day 15 to an approximate tumor volume of 503 mm^3.
# Group mouse weights were recorded three times a week to monitor for weight loss due to toxicity or excessive tumor burden.
# tumor = experiment: Valproic acid and radiotherapy (FIG. 6); type: in vivo; details: single and combined administration of valproic acid and radiotherapy
# HCT-116 tumors = HCT-116 tumors in nude mice, combination with radiotherapy; type: in vivo; details: 6.25, 12.5 or 25 mg/kg/day i.p. OMP 14 days + radiation 2 Gy/day x 10 doses; compared to radiotherapy or compound alone
# Method: This study was done in nude mice bearing HCT-116 tumors in the leg. Three days (−3) prior to the beginning of radiotherapy, mice were implanted i.p with OMPs delivering A-620223 at 0, 6.25, 12.5, or 25 mg/kg/day for 14 days. Starting day 0 mice received radiation treatment (2 Gy/day) for 10 doses alone or in combination with the 3 different doses of 2-(N-propylpiperidin-4-yl)benzimidazole-4-carboxamide.
# [5] = test system: PC3M-Luc human prostate carcinoma; experiment: Orthotopic PC3M-Luc human prostate carcinoma model (BLI); type: in vivo, male SCID-C.B17 mice; details: TMZ 50 mg/kg/day alone or with ABT-888 25 mg/kg/day
# Method: Bioluminescent PC-3M-luciferase-C6 osteolytic human prostate cancer cells, constitutively expressing luciferase (Caliper Life Sciences, Hopkinton, Mass.) were orthotopically injected into the prostates of ˜10-week-old male SCID-C.B17 mice (C.B-17/IcrCrl-scid-BR, Charles River Labs). Mice were housed in a facility with constant humidity, temperature and a 12-h light-dark cycle. Mice were anesthetized with intramuscular injections of ketamine (40 mg/kg) and rompum (5 mg/kg) before surgery. The surgical region was shaved and sterilized with iodine and alcohol swabs. A lower midline incision was made to access the prostate. The left lobe of the dorsal prostate was injected with 1×10^6 PC3M-Luc cells (975 photon/second/cell) in 30 μl (1:1 matrigel, Collaborative Biomedical Products, Bedford, Mass.). The peritoneal cavity was closed with 4-0 suture and skin incision was closed with clip.
# In vivo bioluminescent image (BLI) was performed with an IVISR Imaging System (Caliper Life Sciences, Hopkinton, Mass.). […] Images and measurements of bioluminescent signals were acquired and analyzed using Living Image® software (Caliper Life Sciences, Hopkinton, Mass.). Uniform region of interests (ROIs) were used across all groups and time points to achieve quantification of bioluminescent signal. […] The mice were then monitored with this system at weekly intervals. […]
# [6] = TMZ 50 PO q.d x 5, ABT-888/TMZ 25/50 mg/kg/day po b.i.d./po q.d., normalized BLI post size match
compound,measurement,setting,value
"C[C@]1(c2nc3c(C(N)=O)cccc3[nH]2)CCCN1 [ABT-888, 2-[(2R)-2-methylpyrrolidin-2-yl]-1H-benzimidazole-4-carboxamide]",potentiation of TMZ efficacy (FIG. 2),B16F10 murine melanoma,significantly potentates the TMZ efficacy in a dose dependent manner
same,tumor volume reduction better than TMZ alone,"[1]; A-861695 50 mg/kg/day + TMZ 17.5 mg/kg/day, day 14, p<0.005",44%
same,reduction of tumor volume (day 14),"[1]; A-861695 50 mg/kg/day p.o. b.i.d. in combination with TMZ 17.5 mg/kg/day p.o. q.d., MRI",63%
same,animal survival,"[1]; A-861695 18 or 50 mg/kg/day with TMZ, p<0.005 Log-rank test",significantly prolonged animal survival
same,"potentiation of carboplatin (tumor volumes, FIG. 4)",[2]; A-861695 25 mg/kg/day s.c. OMP 14 days + carboplatin 10 and 15 mg/kg/day,pronounced potentiation of carboplatin
same,cures (no measurable tumors at end of the trial),[3]; A-861695 5 mg/kg/day p.o. b.i.d. x8 + cisplatin 6.0 mg/kg/day i.p. day 18,8/9
same,cures (no measurable tumors at end of the trial),[3]; A-861695 25 mg/kg/day p.o. b.i.d. x8 + cisplatin 6.0 mg/kg/day i.p. day 18,8/9
same,cures (no measurable tumors at end of the trial),[3]; A-861695 50 mg/kg/day p.o. b.i.d. x8 + cisplatin 6.0 mg/kg/day i.p. day 18,6/9
same,dose at which maximal potentiation of cisplatin was reached,"[3]; dose-response 5, 25, 50 mg/kg/day",5 mg/kg/day
same,effect on toxicity of TMZ (FIGS. 7-11),[4],enhancement of toxicity of TMZ
same,bioavailability in brain tissue,compared to other PARP inhibitors,improved bioavailability in brain tissue
same,blood brain barrier,"rat, in vivo",crosses the blood brain barrier
same,Mean Tumor Volume Day 27 mm^3 ± SE,DoHH-2 cells,2970 ± 410 mm^3
same,Observations,DoHH-2 cells; toxicity assessment in Scid female mice,None
same,% T/C Day 28 (dosing 11 days),DoHH-2 cells,127 (—) %
CCCC(CCC)C(=O)O [valproic acid],effect on radiotherapy (FIG. 6),tumor,can enhance the effects of radiotherapy
"N.N.[Cl][Pt][Cl] [cisplatin, reference compound]",cures (no measurable tumors at end of the trial),[3]; cisplatin monotherapy 6.0 mg/kg/day i.p. day 18,3/9
"N.N.O=C([O-])C1(C(=O)[O-])CCC1.[Pt+2] [carboplatin, reference compound]",tumor inhibition as a single agent (FIG. 4),"[2]; carboplatin 5, 10, 15 mg/kg/day i.p. day 20, 24, 27",dose-dependent tumor inhibition
CCCN1CCC(c2nc3cccc(C(N)=O)c3[nH]2)CC1 [2-(N-propylpiperidin-4-yl)benzimidazole-4-carboxamide],reduction of tumor size in combination with radiotherapy (FIG. 1),HCT-116 tumors,significant improvement in the reduction of tumor size
"Cn1nnc2c(C(N)=O)ncn2c1=O [TMZ, temozolomide]",efficacy after second treatment schedule (day 55),[5],no efficacy
same,Day 12 % Tumor change (BLI),MDA-231-LN-luc cells; [6],66 ± 76%
same,Day 30 % Tumor change (BLI),MDA-231-LN-luc cells; [6],1217 ± 560%
same,Weight loss (Observations),MDA-231-LN-luc cells; after last dose of 2nd cycle,>10% after last
same,Mortality,"MDA-231-LN-luc cells; three cycles of 5 days with 11 days of rest, n=11",0/11
same,Mean Tumor Volume Day 27 mm^3 ± SE,DoHH-2 cells,2202 ± 253 mm^3
same,% T/C Day 28 (dosing 11 days),DoHH-2 cells,94%
same,% TGI Day 28 (dosing 11 days),DoHH-2 cells; tumor growth inhibition vs vehicle,6%

# Reference: US20090029966A1, “COMBINATION THERAPY WITH PARP INHIBITORS” (ABBOTT LABORATORIES, priority 2006, published 2009)
